On the set-up of data set [1]: method as in PMID 11576780, PMID 9691477. The conditions noted are these: cited from earlier work.
On the set-up of data set [2]: method as in Chinese Pharmacopoeia, 2005 edition and references 15, 27, 38. As to conditions: ref Chinese Pharmacopoeia, 2005 edition and references 15, 27, 38; cited from earlier work.
Data set [3] is described as follows: PAMPA with synthetic phospholipid membrane, decyl chain (C10). It counts as in vitro ADME. As to conditions: for Papp at 16 h: PAMPA, read-out: P e. A general note: The PAMPA barrier holds no transporters, so it reflects passive diffusion.
Protocol: (§1) In PAMPA, a “sandwich” structure was formed by a 96-well microtiter plate and a 96-well filter plate from Millipore (IPVH, 125 μm thick filter, 0.45 μm pore), then wetted with a 4 μl 2% w/v phospholipid compound solution in n-dodecane [27].
(§2) The stock solutions of the drug samples were prepared at 10 mM concentrations in DMSO and stored at 0°C before use. Before being added to a 96-well filter plate, the stock solution was diluted first with buffer to achieve a final sample concentration of 10∼50 μM and to reduce the DMSO concentration below 1% (v/v).
(§3) The PAMPA plate was filled with a 300 μl diluted drug solution to prepare the “donor” wells, and the 96-well filter plate containing a synthetic phospholipid membrane was then placed on the donor wells. The “acceptor” wells were filled with 200 μl of buffer solution and placed on top of the “sandwich”, and the PAMPA instruments were incubated at 25°C in a sealed and saturated humidity container for a specified time. After reaching the permeation time, the PAMPA plate sandwich was separated, and the amount of drugs in both the donor and acceptor compartments were measured by comparing the experimental spectra with the UV spectrum (220∼400 nm) obtained from reference standards.
(§4) The factor S was the fraction of samples remaining in the donor and the acceptor wells at time t.
(§5) In the incubation time assays, the pH was 7.4 in both the donor and acceptor wells. In the pH-gradient assays, the pH of the drug solutions was varied using NaOH-treated universal buffer (pION Inc.) in the donor wells, and the pH in the acceptor solution was pH 7.4 [15]. In addition, the incubation time in the pH-gradient test assays was 16 h.
On the set-up of data set [4]: method as in DrugBank database. As to conditions: ref DrugBank database; cited from earlier work.
The nature of data set [5]: PAMPA with synthetic phospholipid membrane, lauryl chain (C12). As to conditions: for Papp at 16 h: PAMPA, read-out: P e. It counts as in vitro ADME.
Protocol: as §1, §2, §3, §4, §5
The nature of data set [6]: PAMPA with synthetic phospholipid membrane, octyl chain (C8). Type of data set: in vitro ADME. As to conditions: for Papp at 16 h: PAMPA, read-out: P e.
Protocol: as §1, §2, §3, §4, §5

`CN/C(=N/CCSCc1nc[nH]c1C)NC#N` [Cimetidine]: in data set [1], the “%FA (human fraction absorbed)” value is listed as 85%. In data set [2], the “pKa (first value listed)” value is 7.23. The P e in data set [3] (C10, donor pH 4.6, acceptor pH 7.4, 16 h) was 1.8 ×10^–6 cm/s; in data set [3] (C10, donor pH 6.57, acceptor pH 7.4, 16 h), 2.6 ×10^–6 cm/s; in data set [5] (C12, donor pH 4.6, acceptor pH 7.4, 16 h), 1.8 ×10^–6 cm/s; in data set [5] (C12, donor pH 4.98, acceptor pH 7.4, 16 h), 1.9 ×10^–6 cm/s; in data set [5] (C12, donor pH 8.2, acceptor pH 7.4, 16 h), 3.2 ×10^–6 cm/s; in data set [5] (C12, donor pH 9.32, acceptor pH 7.4, 16 h), 3.4 ×10^–6 cm/s. Besides, the P e was 2.6 ×10^–6 cm/s in data set [6] (C8, donor pH 6.57, acceptor pH 7.4, 16 h) and 3.2 ×10^–6 cm/s in data set [6] (C8, donor pH 8.2, acceptor pH 7.4, 16 h). In addition, the Papp at 16 h is 1.9 ×10⁻⁶ cm/s in data set [3] (C10, donor pH 4.98, acceptor pH 7.4, 16 h); 3.1 ×10⁻⁶ cm/s in data set [3] (C10, donor pH 8.2, acceptor pH 7.4, 16 h); 3.4 ×10⁻⁶ cm/s in data set [3] (C10, donor pH 9.32, acceptor pH 7.4, 16 h); 2.8 ± 0.3 ×10⁻⁶ cm/s in data set [3] (pH 7.4, C10 membrane, incubation time 16 h, pH 7.4 donor and acceptor, 25°C); 2.7 ×10⁻⁶ cm/s in data set [5] (C12, donor pH 6.57, acceptor pH 7.4, 16 h); 3.2 ± 0.3 ×10⁻⁶ cm/s in data set [5] (pH 7.4, C12 membrane, incubation time 16 h, pH 7.4 donor and acceptor, 25°C). Further, the Papp at 16 h turned out to be 1.8 ×10⁻⁶ cm/s in data set [6] (C8, donor pH 4.6, acceptor pH 7.4, 16 h); 1.6 ×10⁻⁶ cm/s in data set [6] (C8, donor pH 4.98, acceptor pH 7.4, 16 h); 3.7 ×10⁻⁶ cm/s in data set [6] (C8, donor pH 9.32, acceptor pH 7.4, 16 h); 2.6 ± 0.4 ×10⁻⁶ cm/s in data set [6] (pH 7.4, C8 membrane, incubation time 16 h, pH 7.4 donor and acceptor, 25°C). The Water solubility in data set [4] was 9380 mg.

The values above are taken from publication PMC4315410, “A New PAMPA Model Proposed on the Basis of a Synthetic Phospholipid Membrane” (PLoS ONE, 2015).
